{"source": "paper PMC12796447", "about": "“Cran1, member of a new class of OLD family ATPases, functions in cell cycle progression in an archaeon” (EMBO Reports, 2025)", "target": "T1, Cran1 (Cell cycle-related ATPase and nickase 1) (Saccharolobus islandicus, UniProt F0NG35, E246A)", "T1 construct": "gene SiRe_0086; full-length, C-terminal His-tag; expressed in Sa. islandicus (ATPase assay) or E. coli BL21(DE3)-RIL; monomer, 55 kDa by gel filtration", "T1 sequence (F0NG35 entry or part of it E246A)": "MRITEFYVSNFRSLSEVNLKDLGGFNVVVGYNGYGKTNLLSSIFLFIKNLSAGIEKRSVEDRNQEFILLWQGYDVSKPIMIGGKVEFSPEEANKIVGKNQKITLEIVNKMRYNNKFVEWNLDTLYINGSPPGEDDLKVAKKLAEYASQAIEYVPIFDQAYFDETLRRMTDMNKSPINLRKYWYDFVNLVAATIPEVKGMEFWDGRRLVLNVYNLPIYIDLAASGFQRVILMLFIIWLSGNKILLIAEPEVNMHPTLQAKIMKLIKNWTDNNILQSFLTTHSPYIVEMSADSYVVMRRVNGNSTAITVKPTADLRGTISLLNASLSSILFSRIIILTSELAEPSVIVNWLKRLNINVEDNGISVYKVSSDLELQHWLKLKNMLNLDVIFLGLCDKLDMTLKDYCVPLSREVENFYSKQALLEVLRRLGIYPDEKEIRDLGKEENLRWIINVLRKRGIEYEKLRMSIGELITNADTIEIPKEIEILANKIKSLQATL", "test": "malachite green phosphate release assay", "assay_type": "biochemical", "details": "1 mM ATP, 0.2 uM protein, 5 mM MgCl2, 25 mM Tris-HCl pH 7.4, 100 mM NaCl; 70 C", "data": [{"smiles": "Nc1ncnc2c1ncn2[C@@H]1O[C@H](COP(=O)(O)OP(=O)(O)OP(=O)(O)O)[C@@H](O)[C@H]1O", "note": "[ATP]", "values": [{"measurement": "malachite green phosphate release assay", "result": "substitution of either of the two residues with alanine had no effect both in vitro"}]}]}
